In one data set the target is T1, human FXR (Homo sapiens, UniProt Q96RI1).
T1 construct: expressed in transfected cells; host or cells: HepG2
T1 sequence (Q96RI1 1-486): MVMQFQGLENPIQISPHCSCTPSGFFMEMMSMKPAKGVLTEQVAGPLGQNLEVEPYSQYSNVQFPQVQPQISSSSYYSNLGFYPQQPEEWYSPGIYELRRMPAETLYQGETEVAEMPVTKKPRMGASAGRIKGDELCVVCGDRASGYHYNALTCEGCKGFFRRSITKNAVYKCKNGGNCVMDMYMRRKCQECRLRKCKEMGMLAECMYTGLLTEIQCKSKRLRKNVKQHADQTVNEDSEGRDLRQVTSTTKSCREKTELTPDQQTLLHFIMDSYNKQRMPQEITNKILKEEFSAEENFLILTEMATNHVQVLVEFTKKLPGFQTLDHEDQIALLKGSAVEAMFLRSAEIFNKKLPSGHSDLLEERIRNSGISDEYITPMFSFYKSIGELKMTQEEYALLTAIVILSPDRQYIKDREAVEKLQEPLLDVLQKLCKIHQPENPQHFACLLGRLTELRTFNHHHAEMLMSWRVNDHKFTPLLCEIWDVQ
Put plainly: FXR responsive luciferase reporter gene assay (FXRE-luc + human FXR expression construct) in HepG2 cells. The data set is classed as cell-based. The following applies: HepG2, 24 h. From the text: (§1) In HepG2 cells, luciferase gene reporter assays have been performed with the transiently transfected reporter gene luciferase construct with the UAS yeast binding site interacting with GAL4 protein (pGL5-UAS 9x, Promega). DNA constructs encoding human LBD domains of human PPARα, PPARγ, of LXRα (pGAL4-PPARα, pGAL4-PPARγ, pGAL4-LXRα) have been cotransfected with the reporter construct. For FXR, FXRE-luc construct with FXR response elements upstream of Firefly luciferase has been used together with an expression construct for human FXR for HepG2 cells transfection. HepG2 cells were then treated with compounds of the invention for 24 h.
On the technique in general: In a reporter assay the amount or activity of a reporter protein is the signal.

The target in another data set is T2, human LXRα (Homo sapiens, UniProt Q13133).
T2 construct: DNA constructs encoding human LBD domains of human PPARα, PPARγ, of LXRα (pGAL4-PPARα, pGAL4-PPARγ, pGAL4-LXRα); expressed in transfected cells; host or cells: HepG2
T2 sequence (Q13133 209-447 limits assumed): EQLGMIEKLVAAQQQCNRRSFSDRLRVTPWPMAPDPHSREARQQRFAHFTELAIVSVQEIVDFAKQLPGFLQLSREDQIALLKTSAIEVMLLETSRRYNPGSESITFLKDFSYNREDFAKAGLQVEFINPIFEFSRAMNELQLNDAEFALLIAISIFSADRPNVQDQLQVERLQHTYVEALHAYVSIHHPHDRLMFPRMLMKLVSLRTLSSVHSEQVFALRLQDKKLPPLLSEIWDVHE
Description: LXRα luciferase reporter gene assay, inhibition of activation by GW3965 (pGAL4-LXRα / pGL5-UAS 9x) in HepG2 cells. The following applies: HepG2, 24 h; read-out: LXRα antagonism. The data set is classed as cell-based. The protocol:
Bezafibrate, GW7647 and WY14643 are known PPARα ligands. […] GW3965 is known high-affinity LXRα ligand.
Inverse agonistic/antagonistic activities of tested compounds to LXRα receptor activated by the LXRα agonist GW3965(10 µM). […] Negative value indicates inverse agonism.
as §1

Another data set has as its target T3, human PPARγ (Homo sapiens, UniProt P37231).
T3 construct: DNA constructs encoding human LBD domains of human PPARα, PPARγ, of LXRα (pGAL4-PPARα, pGAL4-PPARγ, pGAL4-LXRα); expressed in transfected cells; host or cells: HepG2
T3 sequence (P37231 238-503 limits assumed): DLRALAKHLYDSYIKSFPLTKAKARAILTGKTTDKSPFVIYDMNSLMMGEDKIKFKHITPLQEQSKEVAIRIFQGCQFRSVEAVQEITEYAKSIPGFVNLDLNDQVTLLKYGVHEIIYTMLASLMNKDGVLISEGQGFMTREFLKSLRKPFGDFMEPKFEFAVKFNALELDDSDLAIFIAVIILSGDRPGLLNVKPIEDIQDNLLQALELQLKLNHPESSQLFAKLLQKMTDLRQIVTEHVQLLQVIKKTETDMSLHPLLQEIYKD
Put plainly: PPARγ luciferase reporter gene assay (pGAL4-PPARγ / pGL5-UAS 9x) in HepG2 cells. It counts as cell-based. The following applies: HepG2, 24 h.

In the next data set the target is T4, TGR5 (Homo sapiens, UniProt Q8TDU6).
T4 sequence (Q8TDU6 1-330): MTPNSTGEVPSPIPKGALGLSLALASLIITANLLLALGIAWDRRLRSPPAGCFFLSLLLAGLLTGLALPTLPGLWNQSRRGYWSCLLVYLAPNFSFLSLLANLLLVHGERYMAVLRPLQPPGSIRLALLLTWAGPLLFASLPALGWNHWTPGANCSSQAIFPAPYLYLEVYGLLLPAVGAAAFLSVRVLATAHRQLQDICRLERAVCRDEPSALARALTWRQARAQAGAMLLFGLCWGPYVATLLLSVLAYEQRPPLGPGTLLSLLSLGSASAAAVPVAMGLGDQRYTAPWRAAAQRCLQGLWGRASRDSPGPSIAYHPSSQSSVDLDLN
Put plainly: TGR5 luciferase reporter assay. It counts as cell-based. The following applies: relative activation to LCA 10 µM (100%), negative value indicates inverse agonism.

Another data set has as its target T5, human PPARα (Homo sapiens, UniProt Q07869).
T5 construct: DNA constructs encoding human LBD domains of human PPARα, PPARγ, of LXRα (pGAL4-PPARα, pGAL4-PPARγ, pGAL4-LXRα); expressed in transfected cells; host or cells: HepG2
T5 sequence (Q07869 239-466 limits assumed): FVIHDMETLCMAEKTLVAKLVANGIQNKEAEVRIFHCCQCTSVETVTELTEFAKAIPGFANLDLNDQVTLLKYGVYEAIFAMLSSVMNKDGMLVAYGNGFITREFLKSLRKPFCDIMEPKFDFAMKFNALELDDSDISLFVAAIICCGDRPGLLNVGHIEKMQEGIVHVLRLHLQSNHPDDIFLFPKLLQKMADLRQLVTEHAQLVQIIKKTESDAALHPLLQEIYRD
Description: PPARα responsive luciferase reporter gene assay (pGAL4-PPARα / pGL5-UAS 9x) in HepG2 cells. The data set is classed as cell-based. The note with it: relative activation to fenofibrate 10 µM (100%), HepG2, 24 h, negative value indicates inverse agonism.
Excerpt: Bezafibrate, GW7647 and WY14643 are known PPARα ligands. […] GW3965 is known high-affinity LXRα ligand. […]
as §1

The subject of data set [1] is 3D primary human hepatocyte spheroids. Description: Gene expression in 3D primary human hepatocyte spheroids by RT-qPCR. The following applies: 3D spheroids of primary human hepatocytes (JEL donor), 72 hours. The data set is classed as cell-based. From the text:
After the interval, spheroid have been subjected to RNA isolation and RT-qPCR was used to analyse mRNA expression using specific TaqMan probes. Expression has been quantified using a reference gene (TBP) and delta-delta method. Data represents fold up or downregulation in mRNA expression for tested genes (column) related to the expression in vehicle-treated controls (equal to 1, white color).
Human hepatocellular carcinoma HepG2 cell line was purchased from the European Collection of Cell Cultures (ECACC, Salisbury, UK). Primary human hepatocytes (donor) have been purchased from BioIV, Royston, UK.
(§2) Expressions of NR target genes mRNAs in livers of mice or in 3D cultured (spheroids) primary human hepatocytes have been performed using TaqMan probes-based RT-qPCR after isolation of total RNA by Trizol® (ThermoFischer Scientific) reagent and reverse transcription synthesis of cDNA in Quant Studio cycler. Real-time qPCR TaqMan probes have been purchased prom ThermoFisher scientific (Cat. No. 4351372 and 433118). Delta-delta method and Gapdh or TATA-box binding protein (TBP) housekeeping genes were used for relative quantification. Data are expressed as fold up-/down-regulation compared to vehicle-treated samples/mice.
A general note: In qPCR the cycle at which signal appears reflects the starting amount.

In the next data set the test system is C57BL/6J mice. Put plainly: Pilot study in mice, liver mRNA expression by RT-qPCR. The data set is classed as in vivo. The following applies: 3x 30 mg/kg p.o. gavage, liver 24 h after last application, vs vehicle. The protocol: Compounds 35 and 37 have been applied three times after 24 h (3x 30 mg/kg) via p.o. gavage to wild-type C57BL/6J mice. After 24 h from the last application, mice were sacrificed, and live samples collected on dry ice for total RNA isolation. RT-qPCR experiments have been performed with TaqMan probes and expression has been quantified using a reference gene (beta-actin and Gapdh) and delta-delta method. Data represents fold up or downregulation in mRNA expression for tested genes related to the expression in vehicle-treated control animals. * - statistically significant (p<0.05) up- or down- regulation in animals treated with tested compounds (n=4).
In the pilot study, compounds of the invention 37 and 35 were applied by per os probe (gavage) to male mice of age 15 weeks (n=4 per group) three times (3 x 30 mg/kg b.w.) in 1%PEG300/methylcellulose solution (compounds of EXAMPLE 37or 35). Livers were sampled 24 hours after application into liquid nitrogen for total RNA insolation and for qRT-PCR analysis (Quantstudio 7 HT Fast Real-Time PCR System).
as §2

Consider 4 compounds from EP4583874B1, “MULTITARGET NUCLEAR RECEPTOR LIGANDS BASED ON 2-(4-(QUINOLIN-2-YLOXY)PHENOXY)PROPANOIC ACID AND 2-(4-(QUINOXALIN-2-YLOXY)PHENOXY)PROPANOIC ACID FOR THE TREATMENT OF METABOLIC AND LIVER DISEASES” (CHARLES UNIVERSITY, FACULTY OF PHARMACY IN HRADEC KRALOVE, priority 2022, dated 2024).

One may read the Emax as the size of the effect at its maximum, as opposed to the concentration needed.

Take `C[C@@H](Oc1ccc(Oc2ccc3c(Cl)cc(Cl)cc3n2)cc1)C(=O)O` [compound 38, (R)-2-(4-((5,7-Dichloroquinolin-2-yl)oxy)phenoxy)propanoic acid]: the Emax at 10 µM on human FXR came out at 14%; on human PPARγ, 1%; at TGR5, 2%; on human PPARα it was 0%. At human LXRα, the inhibition at 10 µM came to 41%.
`C[C@@H](Oc1ccc(Oc2ccc3ccc(Cl)cc3n2)cc1)C(=O)O` [compound 35, (R)-2-(4-((7-Chloroquinolin-2-yl)oxy)phenoxy)propanoic acid]: at human FXR, the Emax at 10 µM amounted to 4%. For the same compound, on human LXRα, the inhibition at 10 µM was found to be 63%. Moreover, the “effect on some critical genes involved in fatty acid oxidation in comparison with fenofibrate” value in data set [1] is “augmented effect”. In data set [1] (combined effect of obeticholic acid and TFCA), the “genes involved in fatty acid catabolism” value is on record as “suitable upregulation”. Also, at human PPARγ, the Emax at 10 µM is 4%. The Emax at 10 µM at TGR5 was found to be 5%. In the data set with C57BL/6J mice, the “Cyp7a1 expression in the mouse liver” value is given as “down-regulates”, the “Fasn gene expression in the mouse liver” value is listed as “down-regulate”, the “Pck1 gene expression in the mouse liver” value is “down-regulate” and the “cholesterol efflux transporters Abcg5/8 expression in the mouse liver” value was “down-regulates”. The “key protein involved in fatty acid (beta) oxidation, mRNA expression in the mouse liver” value with C57BL/6J mice was “up-regulate”. On human PPARα, this compound showed an Emax at 10 µM of 117%.
In the case of `C[C@@H](Oc1ccc(Oc2ccc3c(Br)cccc3n2)cc1)C(=O)O` [compound 40, (R)-2-(4-((5-Bromoquinolin-2-yl)oxy)phenoxy)propanoic acid], the maximal effect (Emax) at 10 µM is 89% on human FXR, 1% at human PPARγ, 16% on TGR5 and 0% on human PPARα. On human LXRα, the inhibition at 10 µM was 48%.
Consider `C[C@@H](Oc1ccc(Oc2ccc3ccc(Br)cc3n2)cc1)C(=O)O` [compound 39, (R)-2-(4-((7-Bromoquinolin-2-yl)oxy)phenoxy)propanoic acid], for which the Emax at 10 µM was found to be 4% at human FXR, 3% on human PPARγ, 6% at TGR5 and 87% at human PPARα. In addition, the inhibition at 10 µM at human LXRα is 43%.
